In patent publication US20210269434A1, “TRICYCLIC COMPOUNDS AS INHIBITORS OF KRAS” (Incyte Corporation, priority 2020, published 2021) one finds IC50 data, which are given here for 17 molecules.

The structures appear in SMILES notation.

Sequence of KRAS G12D (P01116 1-188 isoform P01116-2 G12D): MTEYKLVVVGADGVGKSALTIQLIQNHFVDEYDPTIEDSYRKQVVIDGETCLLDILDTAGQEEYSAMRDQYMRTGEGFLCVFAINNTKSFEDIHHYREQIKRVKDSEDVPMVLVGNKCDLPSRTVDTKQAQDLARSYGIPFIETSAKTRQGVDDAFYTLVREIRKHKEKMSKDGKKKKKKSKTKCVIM

This experiment has as its target KRAS G12D (Homo sapiens, UniProt P01116, G12D). Description: GDP-GTP exchange assay (KRAS_G12D exchange). The format is biochemical. The settings on record: bodipy loaded KRAS G12D 2.5 nM; 4 hours incubation after GppNHp-SOS1; read-out: G12D_exchange. Here is the method:
Example A. GDP-GTP Exchange Assay
The inhibitor potency of the exemplified compounds was determined in a fluorescence based guanine nucleotide exchange assay, which measures the exchange of bodipy-GDP (fluorescently labeled GDP) for GppNHp (Non-hydrolyzable GTP analog) to generate the active state of KRAS in the presence of SOS1 (guanine nucleotide exchange factor). Inhibitors were serially diluted in DMSO and a volume of 0.1 μL was transferred to the wells of a black low volume 384-well plate. 5 μL/well volume of bodipy-loaded KRAS G12C diluted to 5 nM in assay buffer (25 mM Hepes pH 7.5, 50 mM NaCl, 10 mM MgCl2 and 0.01% Brij-35) was added to the plate and pre-incubated with inhibitor for 2 hours at ambient temperature. Appropriate controls (enzyme with no inhibitor or with a G12C inhibitor (AMG-510)) were included on the plate. The exchange was initiated by the addition of a 5 μL/well volume containing 1 mM GppNHp and 300 nM SOS1 in assay buffer. The 10 μL/well reaction concentration of the bodipy-loaded KRAS G12C, GppNHp, and SOS1 were 2.5 nM, 500 uM, and 150 nM, respectively. The reaction plates were incubated at ambient temperature for 2 hours, a time estimated for complete GDP-GTP exchange in the absence of inhibitor. For the KRAS G12D and G12V mutants, similar guanine nucleotide exchange assays were used with 2.5 nM as final concentration for the bodipy loaded KRAS proteins and with 4 hours and 3 hours incubation after adding GppNHp-SOS1 mixture for G12D and G12V respectively. A cyclic peptide described to selectively bind G12D mutant (Sakamoto et al., BBRC 484.3 (2017), 605-611) or internal compounds with confirmed binding were used as positive controls in the assay plates. Fluorescence intensities were measured on a PheraStar plate reader instrument (BMG Labtech) with excitation at 485 nm and emission at 520 nm.
Either GraphPad prism or XLfit was used to analyze the data. The IC50 values were derived by fitting the data to a four parameter logistic equation producing a sigmoidal dose-response curve with a variable Hill coefficient. Prism equation: Y=Bottom+(Top−Bottom)/(1+10^((Log lC50−X)*Hill slope)); XLfit equation: Y=(A+((B−A)/(1+((X/C)^D)))) where X is the logarithm of inhibitor concentration and Y is the response.
Take `CN(C)C(=O)CCc1nc2c(-c3ccc(=O)n(C)c3)nc3c(F)c(-c4cc(O)cc5ccccc45)c(CCC#N)cc3c2n1C1C2CNC1C2` (stereo not drawn) [Example 298, 3-(1-((endo)-2-azabicyclo[2.1.1]hexan-5-yl)-8-(2-cyanoethyl)-6-fluoro-7-(3-hydroxynaphthalen-1-yl)-4-(1-methyl-6-oxo-1,6-dihydropyridin-3-yl)-1H-imidazo[4,5-c]quinolin-2-yl)-N,N-dimethylpropanamide]: the IC50 is not above 0.1 µM. Then `CN(C)C1CN(c2nc3c(F)c(-c4cc(O)cc5ccccc45)c(Cl)cc3c3c2ncn3[C@H]2[C@H]3CN[C@@H]2C3)C1` (single isomer, unassigned) [Example 48a, 4-(1-((endo)-2-azabicyclo[2.1.1]hexan-5-yl)-8-chloro-4-(3-(dimethylamino)azetidin-1-yl)-6-fluoro-1H-imidazo[4,5-c]quinolin-7-yl)naphthalen-2-ol], with 0.1 to 1 µM.

Regarding `Cc1cc2c(nc(N3CC(N(C)C)C3)c3ncn([C@H]4[C@H]5CN[C@@H]4C5)c32)c(F)c1-c1cc(O)cc2ccccc12` (single isomer, unassigned) [Example 34a, 4-(1-((endo)-2-azabicyclo[2.1.1]hexan-5-yl)-4-(3-(dimethyl-amino)azetidin-1-yl)-6-fluoro-8-methyl-1H-imidazo[4,5-c]quinolin-7-yl)naphthalen-2-ol], the IC50 lay within 0.1 to 1 µM.

Take `CN(C)C1CN(c2nc3c(F)c(-c4cc(O)cc5ccccc45)c(Cl)cc3c3c2nc(CC2CCNCC2)n3[C@H]2[C@H]3CN[C@@H]2C3)C1` (relative stereo) [Example 77, 4-(1-((endo)-2-azabicyclo[2.1.1]hexan-5-yl)-8-chloro-4-(3-(dimethylamino)azetidin-1-yl)-6-fluoro-2-(piperidin-4-ylmethyl)-1H-imidazo[4,5-c]quinolin-7-yl)naphthalen-2-ol]: the IC50 was 1 to 5 µM.

As for `CN(C)C1CN(c2nc3c(F)c(-c4cc(O)cc5ccccc45)c(-c4cn[nH]c4)cc3c3c2ncn3[C@H]2[C@H]3CN[C@@H]2C3)C1` (single isomer, unassigned) [Example 25a, 4-(1-((endo)-2-azabicyclo[2.1.1]hexan-5-yl)-4-(3-(dimethylamino)azetidin-1-yl)-6-fluoro-8-(1H-pyrazol-4-yl)-1H-imidazo[4,5-c]quinolin-7-yl)naphthalen-2-ol], the IC50 is 5 to 10 µM. Under `CCc1nc2c(N3CC(N(C)C)C3)nc3c(F)c(-c4cc(O)cc5ccccc45)c(CCC#N)cc3c2n1C1C2CC1N(Cc1ccc[nH]1)C2` (single isomer, unassigned) [Example 296b, 3-(1-((endo)-2-((1H-pyrrol-2-yl)methyl)-2-azabicyclo[2.1.1]hexan-5-yl)-4-(3-(dimethylamino)azetidin-1-yl)-2-ethyl-6-fluoro-7-(3-hydroxynaphthalen-1-yl)-1H-imidazo[4,5-c]quinolin-8-yl)propanenitrile] stands not above 0.1 µM; under `CN(Cc1ccccn1)C(=O)CCc1nc2c(N3CC(N(C)C)C3)nc3c(F)c(-c4cc(O)cc5ccccc45)c(CCC#N)cc3c2n1C1C2CNC1C2` (stereo not drawn) [Example 301a, 3-(1-((endo)-2-azabicyclo[2.1.1]hexan-5-yl)-8-(2-cyanoethyl)-4-(3-(dimethylamino)azetidin-1-yl)-6-fluoro-7-(3-hydroxynaphthalen-1-yl)-1H-imidazo[4,5-c]quinolin-2-yl)-N-methyl-N-(pyridin-2-ylmethyl)propanamide], not above 0.1 µM.

Regarding `CN(C)C1CN(c2nc3c(F)c(-c4cc(O)cc5ccccc45)c(CCC#N)cc3c3c2nc(CN2CCOCC2=O)n3C2C3CNC2C3)C1` (single isomer, unassigned) [Example 300a, 3-(1-((endo)-2-azabicyclo[2.1.1]hexan-5-yl)-4-(3-(dimethylamino)azetidin-1-yl)-6-fluoro-7-(3-hydroxynaphthalen-1-yl)-2-((3-oxomorpholino)methyl)-1H-imidazo[4,5-c]quinolin-8-yl)propanenitrile], the IC50 is not above 0.1 µM. Under `CN(C)C(=O)CCc1nc2c(N3CC(N(C)C)C3)nc3c(F)c(-c4cccc5ccc(F)cc45)c(CCC#N)cc3c2n1C1C2CNC1C2` (single isomer, unassigned) [Example 291b, 3-(1-((endo)-2-azabicyclo[2.1.1]hexan-5-yl)-8-(2-cyanoethyl)-4-(3-(dimethylamino)azetidin-1-yl)-6-fluoro-7-(7-fluoronaphthalen-1-yl)-1H-imidazo[4,5-c]quinolin-2-yl)-N,N-dimethylpropanamide] stands not above 0.1 µM. Under `Cc1nc2c(N3CC(N(C)C)C3)nc3c(F)c(-c4cc(O)cc5ccccc45)c(Cl)cc3c2n1[C@H]1[C@H]2CN[C@@H]1C2` [Example 15, 4-(1-((endo)-2-azabicyclo[2.1.1]hexan-5-yl)-8-chloro-4-(3-(dimethylamino)-azetidin-1-yl)-6-fluoro-2-methyl-1H-imidazo[4,5-c]quinolin-7-yl)naphthalen-2-ol] stands 1 to 5 µM; under `CN(C)C1CN(c2nc3c(F)c(-c4cc(O)cc5ccccc45)c(CCC#N)cc3c3c2nc(-c2csc(N4CCNCC4)n2)n3C2C3CNC2C3)C1` (single isomer, unassigned) [Example 302a, 3-(1-((endo)-2-azabicyclo[2.1.1]hexan-5-yl)-4-(3-(dimethylamino)azetidin-1-yl)-6-fluoro-7-(3-hydroxynaphthalen-1-yl)-2-(2-(piperazin-1-yl)thiazol-4-yl)-1H-imidazo[4,5-c]quinolin-8-yl)propanenitrile], not above 0.1 µM; under `CN(C)C1CN(c2nc3c(F)c(-c4cc(O)cc5ccccc45)c(Cl)cc3c3c2nc(CCN)n3[C@H]2[C@H]3CN[C@@H]2C3)C1` [Example 76, 4-(2-(2-aminoethyl)-1-((endo)-2-azabicyclo[2.1.1]hexan-5-yl)-8-chloro-4-(3-(dimethylamino)azetidin-1-yl)-6-fluoro-1H-imidazo[4,5-c]quinolin-7-yl)naphthalen-2-ol], 0.1 to 1 µM. Under `CN(C)Cc1nc2c(N3CC(N(C)C)C3)nc3c(F)c(-c4cc(O)cc5ccccc45)c(Cl)cc3c2n1[C@H]1[C@H]2CN[C@@H]1C2` (racemic) [Example 49, 4-(1-((endo)-2-azabicyclo[2.1.1]hexan-5-yl)-8-chloro-4-(3-(dimethylamino)-azetidin-1-yl)-2-((dimethylamino)methyl)-6-fluoro-1H-imidazo[4,5-c]quinolin-7-yl)naphthalen-2-ol] stands 5 to 10 µM; under `CNCCc1nc2c(N3CC(N(C)C)C3)nc3c(F)c(-c4cc(O)cc5ccccc45)c(-c4cn[nH]c4)cc3c2n1C1C2CNC1C2` (single isomer, unassigned) [Example 295b, 4-(1-((endo)-2-azabicyclo[2.1.1]hexan-5-yl)-4-(3-(dimethylamino)azetidin-1-yl)-6-fluoro-2-(2-(methylamino)ethyl)-8-(1H-pyrazol-4-yl)-1H-imidazo[4,5-c]quinolin-7-yl)naphthalen-2-ol], 0.1 to 1 µM.

For the molecule `CNC(=O)c1cc(-c2nc3c(F)c(-c4cc(O)cc5ccccc45)c(CCC#N)cc3c3c2nc(CCC(=O)N(C)C)n3C2C3CNC2C3)ccc1F` (stereo not drawn) [Example 297, 5-(1-((endo)-2-azabicyclo[2.1.1]hexan-5-yl)-8-(2-cyanoethyl)-2-(3-(dimethylamino)-3-oxopropyl)-6-fluoro-7-(3-hydroxynaphthalen-1-yl)-1H-imidazo[4,5-c]quinolin-4-yl)-2-fluoro-N-methylbenzamide], the IC50 is not above 0.1 µM. Under `Cc1ccc2cc(O)cc(-c3c(Cl)cc4c(nc(N5CC(N(C)C)C5)c5ncn([C@H]6[C@H]7CN[C@@H]6C7)c54)c3F)c2c1` [Example 24, 4-(1-((endo)-2-azabicyclo[2.1.1]hexan-5-yl)-8-chloro-4-(3-(dimethylamino)-azetidin-1-yl)-6-fluoro-1H-imidazo[4,5-c]quinolin-7-yl)-6-methylnaphthalen-2-ol] stands 1 to 5 µM. Turning to `CN(C)C(=O)CCc1nc2c(N3CC(N(C)C)C3)nc3c(Cc4ccccc4)c(-c4cc(O)cc5ccccc45)c(CCC#N)cc3c2n1[C@@H]1[C@@H]2CN[C@H]1C2` (racemic) [Example 294, 3-(6-benzyl-1-((endo)-2-azabicyclo[2.1.1]hexan-5-yl)-8-(2-cyanoethyl)-4-(3-(dimethylamino)azetidin-1-yl)-7-(3-hydroxynaphthalen-1-yl)-1H-imidazo[4,5-c]quinolin-2-yl)-N,N-dimethylpropanamide], the IC50 was 0.1 to 1 µM.
